Experimental data published in patent US12214076B2, “Drug delivery vehicles for atherosclerosis nanomedicine” (Northwestern University, priority 2019, dated 2025).
Ends that are not written are not given here. Peptide text beside a SMILES is read from it. * marks the point of attachment. Palmitoyl = CCCCCCCCCCCCCCCC(=O)*

Experiments:
[1] = tested on: atherosclerotic LDLR KO mice; assay: In vivo proof of concept: PA nanofiber localization in aortic root; set-up: species or system mouse; conditions: 24 h after intravenous injection, high fat diet 14 weeks, 6 mg kg-1 PA
Protocol: Mouse Model of Atherosclerosis and In Vivo Proof of Concept: LDLR-KO mice were fed a high fat “Western” diet (Teklad TD.88137) starting at 4 weeks of age. This diet consisted of 20% fat, 0.2% cholesterol, and 34% high sucrose. LDLR-KO mice fed this diet typically develop severe hypercholesterolemia (>800 mg/dL) and hypertriglyceridemia (>300 mg/dL) after only 2 weeks, and by 12 weeks on the high fat diet, atherosclerotic lesions are detected in the aortic root and aortic arch. After 14 weeks on the high fat diet, mice received intravenous injections of PA nanofibers dissolved in PBS (dorsal penile vein in males) under sterile conditions. Mice were briefly anesthetized for injection with inhaled isoflurane. After injection, mice were monitored and allowed to recover from anesthesia in a heated oxygen chamber. […] PA fluorescence was assessed with the HE CY3 filter (Zeiss filter #43) using excitation and emission wavelengths of 550-575 nm and 605-670 nm, respectively. Nuclear staining was performed with DAPI (4′,6-Diamidino-2-Phenylindole, Dilactate, ThermoFisher, Chicago, IL), and assessed with the DAPI filter (Zeiss filter #49) using excitation and emission wavelengths of 365-395 and 445-450 nm, respectively. Tissue autofluorescence was assessed with the green fluorescent protein filter (Zeiss filter #38) using excitation and emission wavelengths of 470-495 and 525-550 nm, respectively. […]

[2] = TEM characterization of PA nanofibers for diameter and length (Example 3); type: physicochemical
Protocol: Samples at 1 mM in PBS were prepared for TEM by plating on copper supports covered with thin carbon foil 400-mesh that were treated with glow discharge. […] Due to the overlapping fibers, automated tools including FiberApp could not be used to analyze the nanofibers. Instead, the TEM images were analyzed manually for nanofiber diameter and length using ImageJ software. Cryogenic TEM of samples was also performed using a JEOL 1230 at 100 kV accelerating voltage and Gatan 831 CCD camera. […] Samples were prepared at 1 mM in PBS blotted once for 3 seconds before plunging into liquid ethane using a Vitrobot Mark III (FEI) vitrification robot.

LDLR KO mice [3] = assay: Targeting of atherosclerosis by IV injected ApoA1 PA nanofibers (Example 3); type: in vivo, mouse; conditions: within 24 hours after injection, confocal, Alexa Fluor 546
Protocol: (§1) Mouse model of atherosclerosis: To study atherosclerosis, the LDLR KO mouse was used. LDLR KO mice are fed a high fat “western” diet (Teklad TD.88137) starting at 4 weeks of age. This diet consists of 20% fat, 0.2% cholesterol, and 34% high sucrose. LDLR KO mice fed this diet typically develop severe hypercholesterolemia (>800 mg/dL) and hypertriglyceridemia (>300 mg/dL) after only 2 weeks. By 12 weeks on the high fat diet, atherosclerotic lesions are detected in the aortic root and aortic arch on cryosections stained with Oil Red O (Sigma). Atherosclerosis was quantified in the aortic root as a percentage of the aortic root by taking the atherosclerotic area divided by the total aortic root area. Measurements were made with ImageJ software. All protocols for the animal model and procedures in this manuscript were approved by Northwestern University's Institutional Animal Care and Use Committee.
Injection of PA nanofibers: PA nanofibers were dissolved at 2-4 mg/mL concentration in room temperature phosphate buffered saline (PBS). After 14 weeks on the high fat diet, mice received intravenous injections of PA nanofiber dissolved in PBS (dorsal penile vein in males, retro-orbital injection in females) using a 31 G hypodermic insulin needle on a 0.3 mL syringe under sterile conditions and magnification (NIKON SMZ 645 Zoom Stereomicroscope). Mice were briefly anesthetized for injection with inhaled isoflurane. Mice were monitored and allowed to recover from anesthesia in a heated oxygen chamber.
Dose and concentration study: To determine the optimum concentration for targeting efficacy and safety, LDLR KO mice fed the high fat diet for 14 weeks were injected with PA nanofiber at concentrations of 1 mg/mL, 2 mg/mL, and 4 mg/mL at 8 mg/kg in PBS. Similarly, to determine the optimum dose for targeting efficacy and safety, LDLR KO mice fed the high fat diet for 14 weeks were injected at PA nanofiber doses of 8 mg/kg, 6 mg/kg, 4 mg/kg, 3.3 mg/kg, and 1.7 mg/kg at 2 mg/mL in PBS. Safety, optimum dose, and concentration for targeting was assessed by survival of the animal and fluorescent pixel quantification in the aortic root, liver, lungs, kidneys, and spleen.
(§2) Tissue processing and imaging: Mice were sacrificed and euthanized under inhaled isoflurane anesthesia by diaphragm disruption and exsanguination. Phlebotomy was performed through direct right ventricular cardiac puncture using a 1 mL syringe and 25 G needle. Perfusion was performed through left ventricular cardiac puncture with 10 mL PBS and 10 mL 10% sucrose solution. The lungs, liver, spleen, kidney, aortic root, aortic arch, and descending aorta were harvested and stored in 10% sucrose for 20 minutes. Organs and vessels were then flash-frozen in Optimal Cutting Temperature embedding medium 4583 (Tissue-Tek®) with liquid nitrogen. Frozen specimens were stored at −80° C. and cryosectioned at […]. Confocal microscopy was performed on a Nikon AIR microscope. Two sets of images were acquired with a 10× Plan Fluor NA 0.3 objective. PAs were identified through quantification of the Alexa Fluor® 546 conjugated dye with 561 nm excitation and a 600/50 nm emission filter.
Images were acquired with spectral detection and spectrally unmixed to accurately separate green autofluorescence from the red Alexa Fluor® 546 signal. Brightfield and fluorescent microscopy were performed using a Zeiss Axio Imager.A2 microscope with AxioVision software (release 4.8.2, 06-2010). All confocal and fluorescent sections were mounted with ProGold Diamond mounting media (Sigma). Slides were stained with Oil Red O to image and quantify atherosclerosis under brightfield microscopy. The elastic laminae were identified using the green fluorescent protein (GFP) filter with an exposure time of 3500 ms under 5× magnification. Nanofibers were identified in the aortic root by presence of Alexa Fluor® 546 on the Cy3 filter under 5-10× magnification, and in the internal organs under 20× magnification. […]

LDLR KO mice [4] = assay: Atherosclerosis treatment study; type: in vivo, mouse
Protocol: as §1
(§3) Blood samples were collected at the end of the treatment study for toxicology analysis. Mice were euthanized three days after their 16th treatment.
as §2
Images were acquired with spectral detection and spectrally unmixed to accurately separate green autofluorescence from the red Alexa Fluor® 546 signal. Brightfield and fluorescent microscopy were performed using a Zeiss Axio Imager.A2 microscope with AxioVision software (release 4.8.2, 06-2010). All confocal and fluorescent sections were mounted with ProGold Diamond mounting media (Sigma). Slides were stained with Oil Red O to image and quantify atherosclerosis under brightfield microscopy. The elastic laminae were identified using the green fluorescent protein (GFP) filter with an exposure time of 3500 ms under 5× magnification. Nanofibers were identified in the aortic root by presence of Alexa Fluor® 546 on the Cy3 filter under 5-10× magnification, and in the internal organs under 20× magnification. Fluorescent pixel quantification in the aortic root and within organs was performed with ImageJ software.
(§4) Statistics: The effect of treatments and sex on atherosclerosis progression in mice was analyzed using one- or two-factor analysis of variance (ANOVA) followed by a post-hoc student's t-test. The toxicological effects of treatments were also analyzed using two-factor ANOVA and a post-hoc student's t-test. Toxicological effects of treatments on liver proteins AST, ALT, and ALP were further analyzed using ordinal logistic regression models of likelihood ratio tests, followed by a post-hoc Wald test

[5] = Treatment study serum chemistry (toxicology analysis); type: in vivo, mouse; conditions: mouse, in vivo
Protocol: as §3, §2, §4

[6] = ROS-Ac2-26 PA cleavage assay with SIN-1; type: physicochemical
Protocol: ROS-Ac2-26 and MMP-Ac2-26 PA cleavage assays: To examine ROS-mediated cleavage, 3-morpholinosydnonimine hydrochloride (SIN-1, Sigma-Aldrich or Abcam) was used. ROS-Ac2-26 PAs were reconstituted to 0.5 mM in phosphate buffer and treated with 100 μM SIN-1 for 24 hours at 37° C. For MMP2/9-mediated cleavage, human recombinant MMP2 (R&D systems, carrier-free) was used, activated with freshly prepared 1 mMp-aminophenylmercuric acetate (APMA, Sigma-Aldrich) for one hour at 37° C. The APMA disrupts the cysteine-zinc bond in MMP2 responsible for enzyme latency by liberation of the sulfhydryl group. 10% MMP-Ac2-26 PA co-assemblies were prepared at 0.5 mM in a cleavage buffer containing 50 mM tricine, 50 mM NaCl, 50 μM ZnCl2, and 10 mM CaCl2) at pH 7.4, and treated with 40 nM human recombinant MMP2 for 24 hours at 37° C. At the end of each time point, the samples were stored at −20° C., effectively stopping the cleavage reactions. Samples were analyzed at room temperature, 0.04-0.3 mg/mL with 0.1% NH4OH using a ThermoFisher Q Exactive HIF-X (ThermoFisher, Bremen, Germany) mass spectrometer coupled with a Waters Acquity H-class liquid chromatograph system. […] All measurements were recorded at a resolution setting of 120,000. […] Injection volume for all samples was […]. Data was analyzed on Xcalibur (ThermoFisher, Breman, Germany).

[7] = read-out: dissociation constant for PEIPC; cited from earlier work
[8] = 30 measurements from three images
[9] = 30 measurements from three images, listed as Ser PA
[10] = 30 measurements from three images, listed as scrambled

CCCCCCCCCCCCCCCC(=O)N[C@H](C(=O)N[C@H](C(=O)N[C@@H](C)C(=O)N[C@@H](C)C(=O)N[C@@H](CCC(=O)O)C(=O)N[C@@H](CCC(=O)O)C(=O)N[C@@H](CS)C(=O)N[C@@H](CC(=O)O)C(=O)N[C@@H](Cc1c[nH]c2ccccc12)C(=O)N[C@@H](Cc1ccccc1)C(=O)N[C@@H](C)C(=O)N[C@@H](CCCCN)C(=O)N[C@@H](CC(=O)O)C(=O)N[C@@H](Cc1ccc(O)cc1)C(=O)N[C@@H](Cc1ccccc1)C(=O)N[C@@H](CCCCN)C(=O)N[C@@H](CCCCN)C(=O)N[C@@H](C)C(=O)N[C@@H](Cc1ccccc1)C(=O)N[C@H](C(=O)N[C@@H](CCC(=O)O)C(=O)N[C@@H](CCC(=O)O)C(=O)N[C@@H](Cc1ccccc1)C(=O)N[C@@H](C)C(=O)N[C@@H](CCCCN)C(N)=O)C(C)C)C(C)C)C(C)C [Scr PA] (Palmitoyl-VVAAEECDWFAKDYFKKAFVEEFAK-NH2)
localization of nanofibers to areas of atherosclerotic plaque in the aortic root [1]: does not reveal evidence of nanofiber localization
Diameter (nm) Median [2, 8]: 14.2 nm
Length (nm) Average [2, 8]: 403.8 nm
Diameter (nm) Average [2, 9]: 13.8 nm
Length (nm) Median [2, 9]: 257.6 nm
Diameter (nm) Average [2, 10]: 13.8±2.4 nm
Length (nm) Median [2, 10]: 258 nm
localization to areas of atherosclerosis (LDLR KO mice [3]): did not localize to areas of atherosclerosis
atherosclerosis progression in comparison to the PBS control (LDLR KO mice [4]; both sexes, twice per week over eight weeks, percent of atherosclerosis in the aortic root): significantly decreased
reduction of atherosclerosis in females in comparison to males (LDLR KO mice [4]; mouse, in vivo): greater effects upon reducing atherosclerosis in females
AST levels in comparison to the PBS control [5]: no significant differences
Creatine [5]: 0 U/L
Sodium [5]: 138 mmol/L
Total Protein [5]: 5.4 g/dL
aspartate aminotransferase (AST) in the blood in comparison to PBS [5]: significantly elevated levels of aspartate aminotransferase (AST)

C16-V2A2 (SEQ ID NO: 8)-E2-KP5K (SEQ ID NO: 10)-AMVSEFLKQAWFIENEEQEYVQTVK SEQ ID NO: 7-NH2 [ROS-Ac2-26 PA]
Ac2-26 release from PA ([6]; 100 μM SIN-1, 24 hours, 37° C.): released Ac2-26
Ac2-26 cleavage without SIN-1 treatment ([6]; untreated): showed the presence of cleaved Ac2-26 peptide

DWFKAFYDKVAEKFKEAF (SEQ ID NO: 2)-NH2 (DWFKAFYDKVAEKFKEAF-NH2) [4F, 18 amino acid ApoA1 mimetic peptide]
nanofiber formation [2]: No nanofiber formation
localization to areas of atherosclerosis (LDLR KO mice [3]): localized to areas of atherosclerosis
Kd [7]: 1e-05 µM

native ApoA1: main protein component of high density lipoprotein (HDL) cholesterol
Kd [7]: 50 µM
